Series [1] concerns A549 cells. In words: In vitro cell proliferation assay, Example 4 (CellTiter-Glo, 2 days). It counts as cell-based, human. The method, then:
In vitro cell proliferation assays. […] All cell lines were maintained in complete media [RPMI medium 1640 supplemented with 10% (wt/vol) fetal bovine serum and Gentamycin ([…])]. Cells were plated at a density of 5,000 cells per well of each 96-well black tissue culture treated microtiter plate in 95 ul complete media, then were grown for 24 hour at 37° C. with 7% CO2 in a humidified incubator before agent/conjugate addition. In a separate 96-well plate, agent (in DMSO) and antibody conjugate (in PBS) stocks were serially diluted in complete media at 20× final working concentrations, and 5 ul added to the cells used in the assay. Doxorubicin was used as the control to monitor the behavior of the cell lines used. Cells were incubated with the agent/conjugate for 2 days before luminescence reading. Cell viability testing used the CellTiter-Glo luminescent cell viability assay (Promega, Madison, Wis.).

The test system of series [2] is A549. The series is described as follows: In vitro cell proliferation assay (CellTiter-Glo, 3 days) A549. As to conditions: for activity decrease when attached to the PEG24 linker and capped, compared to the free uncoupled agent: Example 15; for IC50: Homo sapiens. Format: cell-based, human. As to the method:
(§1) In vitro cell proliferation assays. […] All cell lines were maintained in complete media [RPMI medium 1640 supplemented with 10% (wt/vol) fetal bovine serum and Gentamycin (50 μg/ml)]. Cells were plated at a density of 1250 (H460 and A549) or 1825 (HCT15 and MCF7) cells per well of each 384-well white tissue culture treated microtiter plate in 20 uls complete media, and then were grown for 24 hour at 37° C. with 7% CO2 in a humidified incubator before agent/conjugate addition. In a separate 96-well plate, agent and antibody conjugate (in PBS) stocks were serially diluted in complete media at 5× final working concentrations, and 5 ul added to the cells used in the assay. Cells were incubated with the agent/conjugate for 3 days before cell viability testing. Cell viability testing used the CellTiter-Glo luminescent cell viability assay (Promega, Madison, Wis.). IC50 values of the agents to each cell line were determined using GraphPad Prism 5 software.
For the experiment below, α-Fl-CEN10-105 (also termed α-Fl-106), CEN10-105-Cys (also termed PEG24106) and M53-PEG24-CEN09-106 were varied as indicated in FIG. 11. […] All were assayed in the A549 cell proliferation assay. Cells were maintained in complete media [RPMI medium 1640 supplemented with 10% (wt/vol) fetal bovine serum and Gentamycin (50 μg/ml)]. Cells were plated at a density of 1250 per well of a 384-well white tissue culture treated microtiter plate in 20 uls complete media, then were grown for 24 hour at 37° C. with 7% CO2 in a humidified incubator before agent/conjugate addition. In a separate 96-well plate, agent and antibody conjugate (in PBS) stocks were serially diluted in complete media at 5× final working concentrations, and 5 uls added to the cells used in the assay. For the competition assay (M53 Comp) M53 was serially diluted from 500 to 0.11 nM in the presence of 5 nM PEG24-106, and 5 ul of these dilutions were added to cells used in this assay. Cells were incubated with the agent/conjugate for 3 days before cell viability testing. Cell viability testing used the CellTiterGlo luminescent cell viability assay (Promega, Madison, Wis.).
Cytotoxicity of the above EDCs were evaluated in vitro on the NSCLC line A549. Cells were maintained in complete media [RPMI medium 1640 supplemented with 10% (wt/vol) fetal bovine serum and Gentamycin (50 μg/ml)]. Cells were plated at a density of 1250 per well of a 384-well white tissue culture treated microtiter plate in 20 uls complete media, then were grown for 24 hour at 37° C. with 7% CO2 in a humidified incubator before conjugate addition. In a separate 96-well plate, ADC (in PBS) stocks were serially diluted in complete media at 5× final working concentrations, and 5 uls added to the cells used in the assay. Cells were incubated in the presence of the compounds for 72 hrs prior to cell viability testing. Cell viability testing was performed using the CellTiter-Glo luminescent cell viability assay (Promega, Madison, Wis.).
Cytotoxicity of the above compounds were evaluated in vitro on the NSCLC line A549. Cells were maintained in complete media [RPMI medium 1640 supplemented with 10% (wt/vol) fetal bovine serum and Gentamycin (50 μg/ml)]. Cells were plated at a density of 1250 per well of a 384-well white tissue culture treated microtiter plate in 20 uls complete media, then were grown for 24 hour at 37° C. with 7% CO2 in a humidified incubator before agent addition.

The test system of series [3] is A375. In words: Cytotoxicity IC50 on A375. The note with it: Homo sapiens. Format: cell-based. From the text:
(§2) ND indicates IC50 values that could not be determined at the concentrations tested. The presence of the antibody M53's target on the cell surface as determined by M53 cell staining is indicated as Yes/No. The origin of the cell line and disease type for each cell line is also indicated.
Parent CEN09-106, CEN09-104 and CEN10-126 drugs were all linked to antibody M53 via the PEG24 linker as described in Example 5. The intermediate drug-PEG24's were capped with cysteine as described in Example 5. Cytotoxicity of the EDC's and the drug-PEG24 linkers were evaluated in vitro on the NSCLC line A549 and malignant melanoma cell line A375 as described in Example 5.

Series [4] deals with H460. In words: In vitro cell proliferation assay (CellTiter-Glo, 3 days) H460. It counts as cell-based. The note with it: Homo sapiens. The method, then: as §1
The test system of series [5] is HCT15. The series is described as follows: In vitro cell proliferation assay (CellTiter-Glo, 3 days) HCT15. It counts as cell-based. As to conditions: Homo sapiens. As to the method: as §1
Series [6] relates to MB-231. In words: Cytotoxicity IC50 on MB-231. It counts as cell-based. As to conditions: Homo sapiens; Example 9.
Text: as §2

In series [7] the test system is MALME-3M. The series is described as follows: Cytotoxicity IC50 on MALME-3M. It counts as cell-based. The note with it: Homo sapiens, Example 9.
Text: as §2

In series [8] the test system is MEL2. The series is described as follows: Cytotoxicity IC50 on MEL2. It counts as cell-based. The note with it: Homo sapiens, Example 9.
Text: as §2

For series [9], the system named is SKOV3. The series is described as follows: Cytotoxicity IC50 on SKOV3. Format: cell-based. The note with it: Homo sapiens, SK-OV-3; Example 9.
Text: as §2

The test system of series [10] is A431. The series is described as follows: Cytotoxicity IC50 on A431. It counts as cell-based. The note with it: Homo sapiens, A-431; Example 9.
Text: as §2

In series [11] the test system is HT29. In words: Cytotoxicity IC50 on HT29. It counts as cell-based. As to conditions: Homo sapiens, HT-29; Example 9.
Text: as §2

In series [12] the test system is MCF10a. In words: Cytotoxicity IC50 on MCF10a. It counts as cell-based. The note with it: Homo sapiens, MCF-10A; Example 9.
Text: as §2

Series [13] concerns MCF7. In words: In vitro cell proliferation assay (CellTiter-Glo, 3 days) MCF7. It counts as cell-based. The note with it: Homo sapiens. As to the method: as §1
Setting [14] is: A549, read-out: IC50 A549, Example 15.

Read-outs that look alike come from different tables or passages of the source. Where only a bound is given, the exact number is not on record here.

Turning to “scillarenin neo-4-amino-4-deoxy-L-xylopyranoside [CEN08-243]”, the “A549 cell cytotoxicity (in words)” value in series [1] (within the testing concentration range, antibodies alone = reduced antibody with linker, no agent) was “display cytotoxic activity”.

Regarding `C[C@]12CCC(=NNC(=O)CN)C=C1CCC1C2CC[C@]2(C)[C@@H](c3ccc(=O)oc3)CC[C@]12O` (stereo partly drawn) [CEN09-104, glycinyl hydrazine of scillarenone], the “activity decrease when attached to the PEG24 linker and capped, compared to the free uncoupled agent” value in series [2] is given as around 5 fold. Besides, the IC50 in series [2] (setting [14]) worked out at 0.092 µM; in series [3] (A-375, Example 15), 0.23 µM.

As to `CC1=C2C[C@H]3[C@@H](CC=C4C[C@@H](O)CC[C@@]43C)[C@@H]2CC[C@]12O[C@@H]1C[C@H](C)CN[C@H]1[C@H]2C` [cyclopamine, Cyclopamine, reference compound], the IC50 in series [2] (A549, read-out: IC50 A549) came out at 392 µM.

`N[C@@H](C=O)[C@@H](O)[C@H](O)[C@H](O)CO` [GlcNH2, 2-amino-2-deoxy-D-Glucose, reference compound]: the IC50 in series [4] (NCI-H460, read-out: IC50 H460) was above 1000 µM; in series [2] (A549, read-out: IC50 A549, Example 11, 457 nM to 1 mM), above 1000 µM.

Turning to `C[C@]12CC[C@H](OC3OC[C@H](N)[C@@H](O)[C@@H]3O)C=C1CCC1C2CC[C@]2(C)[C@@H](c3ccc(=O)oc3)CC[C@]12O` (stereo partly drawn) [CEN09-106, Scillarenin-4-amino-4-deoxy-L-xylopyranoside], the IC50 in [5] (HCT-15, 72 h, read-out: IC50 HCT15) is 0.00235 µM; in series [5] (HCT-15, read-out: IC50 HCT15), 0.0023 µM; in series [4] (NCI-H460, 72 h, read-out: IC50 H460), 0.00131 µM; in [4] (NCI-H460, read-out: IC50 H460), 0.0016 µM; in series [6], 0.007 µM; in series [7], 0.0054 µM. Also, the IC50 was found to be 0.00046 µM in series [2] (A549, 72 h, Example 14, cysteine-capped linker forms, A549, 72 hrs); 0.00056 µM in [2] (A549, 72 h, read-out: IC50 A549, 3 days, CellTiter-Glo); 0.0007 µM in [2] (A549, read-out: IC50 A549, Example 9); 0.0005 µM in series [2] (setting [14]); 0.0043 µM in series [8]; 0.0053 µM in [9]. In addition, the IC50 came out at 0.002 µM in [10]; 0.0031 µM in [11]; 0.0032 µM in series [3] (A-375, Example 9); 0.0014 µM in series [3] (A-375, Example 15); 0.0066 µM in series [12]; 0.00188 µM in series [13] (MCF7, 72 h, read-out: IC50 MCF7). The IC50 in series [13] (MCF7, read-out: IC50 MCF7) stood at 0.0026 µM.

For “scillarenin-4-amino-4-deoxy-L-ribopyranoside [CEN09-107]”, the “activity of conjugate compared with free agent (in words)” value in series [1] (A549, FIGS. 3-6) was “more active when not conjugated to L15”.

As to `CC1=C2C[C@H]3[C@@H](CC=C4C[C@@H](O)CC[C@@]43C)[C@@H]2CC[C@]12O[C@@H]1C[C@H](C)CN(CCCCCCNC(=O)CCOCCOCCOCCOCCOCCOCCOCCOCCOCCOCCOCCOCCOCCOCCOCCOCCOCCOCCOCCOCCOCCOCCOCCOCCNC(=O)CCN3C(=O)C=CC3=O)C1[C@H]2C` (stereo partly drawn) [CEN10-130], the half-maximal inhibitory concentration (IC50) in series [2] (A549, Example 10, working concentrations 0.9 to 1000 uM, read-out: IC50 A549) is 244 µM.

In the case of `C[C@]12CC[C@H](O[C@@H]3OC(CO)[C@@H](O)[C@H](O)C3N)C=C1CCC1C2CC[C@]2(C)[C@@H](c3ccc(=O)oc3)CC[C@]12O` (stereo partly drawn) [CEN10-126, scillarenin-2-deoxy-2-amino-β-D-glucopyranoside], in series [2], the “activity decrease when attached to the PEG24 linker and capped, compared to the free uncoupled agent” value is listed as around 300 fold. Also, in [2] (setting [14]), the IC50 stood at 0.0013 µM.

The values are drawn from patent US9364554B2, “Extracellular targeted drug conjugates” (priority 2009, dated 2016).
